Laboratory results as given in patent US20080194970A1 (priority 2005, published 2008).

Assays:
[1] = cited from earlier work
[2] = tested on: normal prostate cells; assay: topical labeling of prostate cells during surgery, imaged by fibered confocal fluorescence microscopy; format: in vivo; conditions: rat during a surgical procedure
Text: The marker bar indicates 30 microns.
The imaging equipment selected for use in the present invention was a Cell-vizio (purchased from Mauna Kea Technologies), an ultra-high resolution molecular imaging system that employs fibered confocal fluorescence microscopy technology. This system was specifically designed to visualize cellular structures and quantify molecular events in vivo and is composed of an autonomous Laser Scanning Unit, a range of fibered objectives made of tens of thousands of optical fibers, and a dedicated image processing and analysis software package. The system is capable of capturing images at a rate of 12 frames per second in living anesthetized animals. These images have a lateral resolution of the order of a micron, an axial resolution of 15 to 20 μm, a field of view up to 600 μm×500 μm, and can be obtained at depths up to 80 μm. The fibered probes have diameters ranging from 300 μm to 1.8 mm, allowing for access to the narrow spaces posterior to the prostate where the cavernous nerves are located.

Substance: Alexa Fluor 488
- water solubility [1]: water solubility, with no organic co-solvents required in labeling reactions
- photostability ([1]; compared with fluorescein): much greater photostability than fluorescein

Substance: acriflavine
- in vivo labeling of normal prostate cells (FIG. 3) [2]: normal prostate cells labeled
